Assay results taken from ChEMBL document CHEMBL1909046, “DrugMatrix in vitro pharmacology data”.

How the values were obtained:
[1] = target: Sodium-dependent noradrenaline transporter (Homo sapiens, UniProt P23975); assay: DRUGMATRIX: Norepinephrine Transporter radioligand binding (ligand: [125I] RTI-55); assay type: cell membranes, MDCK, Membrane; conditions: Not Active = under 50% inhibition at 10 µM; for Ki: read-out: Ki
Substance-P receptor = Substance-P receptor (Homo sapiens, UniProt P25103); assay type: cell membranes, CHO, Membrane; conditions: cho; also: in other assays of this panel Not Active means under 50% inhibition at 10 µM
Substance-P receptor, sequence (P25103 whole entry): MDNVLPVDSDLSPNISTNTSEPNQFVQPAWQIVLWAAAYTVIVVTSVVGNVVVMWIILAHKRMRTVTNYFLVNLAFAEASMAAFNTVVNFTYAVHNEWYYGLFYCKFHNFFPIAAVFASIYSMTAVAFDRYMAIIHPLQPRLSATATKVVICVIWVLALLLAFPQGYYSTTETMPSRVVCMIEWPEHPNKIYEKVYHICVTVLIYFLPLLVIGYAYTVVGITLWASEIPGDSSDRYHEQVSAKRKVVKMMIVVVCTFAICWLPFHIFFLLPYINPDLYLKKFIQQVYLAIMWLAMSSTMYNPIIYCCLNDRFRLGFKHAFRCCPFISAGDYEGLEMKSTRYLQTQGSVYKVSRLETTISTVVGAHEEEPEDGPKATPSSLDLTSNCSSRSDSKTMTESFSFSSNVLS

[2] = target: T1, Cholecystokinin receptor type A (Homo sapiens, UniProt P32238); assay type: cell membranes, Membrane; conditions: 1321-n1; also: in other assays of this panel Not Active means under 50% inhibition at 10 µM
T1 sequence (P32238 whole entry): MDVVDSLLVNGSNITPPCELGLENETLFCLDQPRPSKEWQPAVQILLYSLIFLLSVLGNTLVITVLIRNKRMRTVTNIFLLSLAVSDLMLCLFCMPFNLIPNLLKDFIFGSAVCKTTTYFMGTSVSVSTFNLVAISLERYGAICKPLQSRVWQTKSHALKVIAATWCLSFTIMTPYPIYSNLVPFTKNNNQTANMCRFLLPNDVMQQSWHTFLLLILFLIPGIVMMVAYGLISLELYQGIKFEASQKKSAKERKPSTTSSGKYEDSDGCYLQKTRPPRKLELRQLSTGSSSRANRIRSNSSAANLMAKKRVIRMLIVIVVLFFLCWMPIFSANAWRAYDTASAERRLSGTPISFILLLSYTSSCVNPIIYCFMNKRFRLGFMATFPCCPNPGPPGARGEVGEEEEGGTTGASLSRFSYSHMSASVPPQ

[3] = DRUGMATRIX: Platelet-Derived Growth Factor (PDGF) radioligand binding (ligand: [125I] PDGF); assay type: cell-based; conditions: nih3t3; Not Active = under 50% inhibition at 10 µM
[4] = target: Tyrosine-protein kinase Lck (Homo sapiens, UniProt P06239); assay: DRUGMATRIX: Protein Tyrosine Kinase, LCK enzyme inhibition (substrate: Poly(Glu:Tyr)); assay type: cell-based, Insect cells; conditions: insect cells; Not Active = under 50% inhibition at 10 µM
Tyrosine-protein kinase Lck, sequence (P06239 whole entry): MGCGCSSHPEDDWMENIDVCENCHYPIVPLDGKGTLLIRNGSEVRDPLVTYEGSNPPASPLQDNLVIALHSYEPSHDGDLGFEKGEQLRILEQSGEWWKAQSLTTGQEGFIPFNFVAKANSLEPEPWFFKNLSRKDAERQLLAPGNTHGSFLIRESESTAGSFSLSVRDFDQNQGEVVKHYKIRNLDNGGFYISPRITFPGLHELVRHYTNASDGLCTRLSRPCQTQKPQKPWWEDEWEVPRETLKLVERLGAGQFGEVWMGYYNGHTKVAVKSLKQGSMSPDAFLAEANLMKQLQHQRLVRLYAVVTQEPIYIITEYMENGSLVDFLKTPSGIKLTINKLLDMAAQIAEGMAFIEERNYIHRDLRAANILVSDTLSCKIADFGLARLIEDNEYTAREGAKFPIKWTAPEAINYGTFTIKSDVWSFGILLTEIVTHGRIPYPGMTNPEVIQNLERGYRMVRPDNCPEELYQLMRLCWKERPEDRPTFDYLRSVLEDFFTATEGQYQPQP

[5] = target: T2, Receptor-type tyrosine-protein phosphatase C (Homo sapiens, UniProt P08575); parameters: species or system Escherichia coli;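 also: inhibition of CD45 enzyme activity measured using DiFMUP as substrate; in other assays of this panel Not Active means under 50% inhibition at 10 µM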
T2 sequence (P08575 whole entry): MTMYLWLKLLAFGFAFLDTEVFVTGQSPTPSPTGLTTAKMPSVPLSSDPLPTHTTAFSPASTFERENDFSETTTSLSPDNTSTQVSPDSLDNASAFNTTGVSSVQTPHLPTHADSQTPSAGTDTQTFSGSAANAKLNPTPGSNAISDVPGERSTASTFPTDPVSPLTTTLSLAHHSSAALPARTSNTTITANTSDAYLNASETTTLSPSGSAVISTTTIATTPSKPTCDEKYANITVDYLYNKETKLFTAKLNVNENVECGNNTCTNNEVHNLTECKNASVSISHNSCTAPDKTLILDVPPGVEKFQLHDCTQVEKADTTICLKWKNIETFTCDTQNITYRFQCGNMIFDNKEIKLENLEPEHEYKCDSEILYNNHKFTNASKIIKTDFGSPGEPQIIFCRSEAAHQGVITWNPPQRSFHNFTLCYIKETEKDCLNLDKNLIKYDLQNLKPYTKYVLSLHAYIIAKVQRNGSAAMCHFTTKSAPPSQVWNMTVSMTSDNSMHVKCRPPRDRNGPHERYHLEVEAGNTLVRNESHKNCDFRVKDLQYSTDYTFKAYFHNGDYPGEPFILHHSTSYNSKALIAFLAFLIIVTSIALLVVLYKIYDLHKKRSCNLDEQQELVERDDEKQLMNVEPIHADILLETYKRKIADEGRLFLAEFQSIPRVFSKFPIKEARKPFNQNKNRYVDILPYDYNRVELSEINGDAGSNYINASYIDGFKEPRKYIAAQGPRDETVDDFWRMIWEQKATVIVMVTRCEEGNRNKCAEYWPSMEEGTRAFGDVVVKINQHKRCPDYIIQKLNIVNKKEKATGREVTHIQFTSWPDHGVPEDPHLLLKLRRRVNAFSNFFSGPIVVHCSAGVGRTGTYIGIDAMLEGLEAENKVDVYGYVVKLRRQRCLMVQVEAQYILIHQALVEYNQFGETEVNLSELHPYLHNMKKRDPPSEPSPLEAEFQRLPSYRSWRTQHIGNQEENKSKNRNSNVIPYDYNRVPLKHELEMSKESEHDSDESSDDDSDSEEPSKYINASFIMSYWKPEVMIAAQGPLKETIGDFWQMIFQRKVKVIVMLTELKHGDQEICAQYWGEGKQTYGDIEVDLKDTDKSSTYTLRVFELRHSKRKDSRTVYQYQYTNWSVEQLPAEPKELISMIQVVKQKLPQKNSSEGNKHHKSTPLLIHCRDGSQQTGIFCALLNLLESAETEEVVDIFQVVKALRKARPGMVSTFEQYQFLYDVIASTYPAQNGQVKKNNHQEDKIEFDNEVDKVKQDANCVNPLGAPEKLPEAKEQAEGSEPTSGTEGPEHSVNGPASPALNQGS

Estrogen receptor beta = Estrogen receptor beta (Homo sapiens, UniProt Q92731); conditions: sf9; also: in other assays of this panel Not Active means under 50% inhibition at 10 µM
Estrogen receptor beta, sequence (Q92731 whole entry): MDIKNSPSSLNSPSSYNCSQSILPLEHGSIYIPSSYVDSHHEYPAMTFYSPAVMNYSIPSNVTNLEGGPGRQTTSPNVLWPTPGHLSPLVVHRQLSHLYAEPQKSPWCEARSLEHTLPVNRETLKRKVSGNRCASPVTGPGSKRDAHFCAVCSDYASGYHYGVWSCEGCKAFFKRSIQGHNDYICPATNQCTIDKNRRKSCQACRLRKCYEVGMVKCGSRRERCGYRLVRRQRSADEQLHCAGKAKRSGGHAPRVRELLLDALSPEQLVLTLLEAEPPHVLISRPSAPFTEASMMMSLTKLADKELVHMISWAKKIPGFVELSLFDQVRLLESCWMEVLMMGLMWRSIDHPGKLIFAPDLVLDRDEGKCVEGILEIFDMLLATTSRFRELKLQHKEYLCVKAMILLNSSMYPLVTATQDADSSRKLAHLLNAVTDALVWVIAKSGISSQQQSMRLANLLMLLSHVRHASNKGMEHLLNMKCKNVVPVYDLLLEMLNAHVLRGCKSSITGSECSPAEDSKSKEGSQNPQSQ

Glucocorticoid receptor = target: T3, Glucocorticoid receptor (Homo sapiens, UniProt P04150); conditions: hela s3; also: in other assays of this panel Not Active means under 50% inhibition at 10 µM
T3 sequence (P04150 whole entry): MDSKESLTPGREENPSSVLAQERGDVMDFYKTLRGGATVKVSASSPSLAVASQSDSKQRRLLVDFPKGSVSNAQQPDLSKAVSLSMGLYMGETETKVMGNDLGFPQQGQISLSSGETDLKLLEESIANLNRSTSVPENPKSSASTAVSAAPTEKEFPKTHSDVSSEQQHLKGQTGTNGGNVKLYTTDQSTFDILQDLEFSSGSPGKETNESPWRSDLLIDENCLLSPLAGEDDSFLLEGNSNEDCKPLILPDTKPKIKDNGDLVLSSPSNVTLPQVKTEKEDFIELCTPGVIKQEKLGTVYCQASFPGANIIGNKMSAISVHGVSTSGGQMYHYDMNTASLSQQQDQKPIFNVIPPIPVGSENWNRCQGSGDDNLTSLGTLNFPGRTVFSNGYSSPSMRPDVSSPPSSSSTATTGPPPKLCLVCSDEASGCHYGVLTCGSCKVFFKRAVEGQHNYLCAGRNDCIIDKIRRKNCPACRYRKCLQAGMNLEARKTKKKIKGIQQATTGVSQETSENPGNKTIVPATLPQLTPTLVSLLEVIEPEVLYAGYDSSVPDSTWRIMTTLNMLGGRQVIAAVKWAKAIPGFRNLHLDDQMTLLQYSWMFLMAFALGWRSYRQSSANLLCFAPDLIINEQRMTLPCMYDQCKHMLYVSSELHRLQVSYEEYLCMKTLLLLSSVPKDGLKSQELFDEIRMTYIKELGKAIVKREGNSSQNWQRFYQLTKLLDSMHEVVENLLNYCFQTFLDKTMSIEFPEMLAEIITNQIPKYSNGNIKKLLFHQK

Sodium-dependent noradrenaline transporter, sequence (P23975 whole entry): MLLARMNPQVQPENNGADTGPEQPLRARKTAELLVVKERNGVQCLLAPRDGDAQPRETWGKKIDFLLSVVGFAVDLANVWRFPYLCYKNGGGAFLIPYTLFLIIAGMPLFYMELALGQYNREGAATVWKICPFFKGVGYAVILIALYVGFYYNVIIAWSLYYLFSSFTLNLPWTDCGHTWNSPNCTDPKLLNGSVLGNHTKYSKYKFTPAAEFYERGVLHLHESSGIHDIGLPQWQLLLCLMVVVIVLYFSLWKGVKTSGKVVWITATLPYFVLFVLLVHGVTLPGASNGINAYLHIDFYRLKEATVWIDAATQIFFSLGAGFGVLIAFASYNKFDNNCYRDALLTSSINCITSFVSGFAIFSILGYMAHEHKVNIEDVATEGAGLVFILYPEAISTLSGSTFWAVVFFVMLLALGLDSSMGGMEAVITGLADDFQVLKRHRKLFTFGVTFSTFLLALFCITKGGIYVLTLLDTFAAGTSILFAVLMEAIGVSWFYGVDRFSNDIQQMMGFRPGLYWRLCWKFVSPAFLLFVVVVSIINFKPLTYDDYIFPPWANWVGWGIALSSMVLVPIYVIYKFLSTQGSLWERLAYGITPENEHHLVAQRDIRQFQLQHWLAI

## CC(C)c1cccc(C(C)C)c1O [PROPOFOL]
[1]; read-out: IC50
  IC50: 9.39 µM
[1]
  Ki: 9.32 µM
Substance-P receptor
  IC50: Not Active
[2]
  IC50: Not Active
[3]
  IC50: Not Active
  Ki: Not Active
[4]
  IC50: Not Active
[5]
  IC50: Not Active
Estrogen receptor beta
  IC50: Not Active

## CC(=O)[C@@]1(O)CC[C@H]2[C@@H]3CCC4=CC(=O)CC[C@]4(C)[C@H]3CC[C@@]21C [HYDROXYPROGESTERONE]
[1]; mdck
  IC50: Not Active
Substance-P receptor
  IC50: Not Active
[2]
  IC50: Not Active
[3]
  IC50: Not Active
  Ki: Not Active
[4]
  IC50: Not Active
[5]
  IC50: Not Active
Estrogen receptor beta
  IC50: Not Active

## CC(=O)Oc1ccc(C(c2ccc(OC(C)=O)cc2)c2ccccn2)cc1 [BISACODYL]
[1]; mdck
  IC50: Not Active
Substance-P receptor
  IC50: Not Active
[2]
  IC50: Not Active
[3]
  IC50: Not Active
  Ki: Not Active
[4]
  IC50: Not Active
[5]
  IC50: Not Active
Estrogen receptor beta
  IC50: Not Active

## CCC1(CCC(C)C)C(=O)NC(=O)NC1=O [AMOBARBITAL]
[1]; mdck
  IC50: Not Active
Substance-P receptor
  IC50: Not Active
[2]
  IC50: Not Active
[3]
  IC50: Not Active
  Ki: Not Active
[4]
  IC50: Not Active
[5]
  IC50: Not Active
Estrogen receptor beta
  IC50: Not Active

## C[C@]12C=CC(=O)C=C1CC[C@@H]1[C@@H]2[C@@H](O)C[C@@]2(C)[C@H]1CC[C@]2(O)C(=O)CO [PREDNISOLONE]
[1]; mdck
  IC50: Not Active
Substance-P receptor
  IC50: Not Active
[2]
  IC50: Not Active
[3]
  IC50: Not Active
  Ki: Not Active
[4]
  IC50: Not Active
[5]
  IC50: Not Active
Estrogen receptor beta
  IC50: Not Active

## CC(=O)[C@H]1[C@H](C#N)C[C@H]2[C@@H]3CC=C4C[C@@H](O)CC[C@]4(C)[C@H]3CC[C@@]21C [PREGNENOLONE CARBONITRILE]
[1]; mdck
  IC50: Not Active
Substance-P receptor
  IC50: Not Active
[2]
  IC50: Not Active
[3]
  IC50: Not Active
  Ki: Not Active
[4]
  IC50: Not Active
[5]
  IC50: Not Active
Estrogen receptor beta
  IC50: Not Active

## CC(C(=O)O)c1cccc(Oc2ccccc2)c1 (stereo not given) [FENOPROFEN]
[1]; mdck
  IC50: Not Active
Substance-P receptor
  IC50: Not Active
[2]
  IC50: Not Active
[3]
  IC50: Not Active
  Ki: Not Active
[4]
  IC50: Not Active
[5]
  IC50: Not Active
Estrogen receptor beta
  IC50: Not Active

## COc1cc([C@@H]2c3cc4c(cc3[C@@H](O[C@@H]3O[C@@H]5CO[C@@H](C)O[C@H]5[C@H](O)[C@H]3O)[C@H]3COC(=O)[C@H]23)OCO4)cc(OC)c1O [ETOPOSIDE]
[1]; mdck
  IC50: Not Active
Substance-P receptor
  IC50: Not Active
[2]
  IC50: Not Active
[3]
  IC50: Not Active
  Ki: Not Active
[4]
  IC50: Not Active
[5]
  IC50: Not Active
Estrogen receptor beta
  IC50: Not Active

## CCCNCC(O)COc1ccccc1C(=O)CCc1ccccc1 (stereo not given) [PROPAFENONE]
Substance-P receptor
  IC50: Not Active
[2]
  IC50: Not Active
[3]
  IC50: Not Active
  Ki: Not Active
[4]
  IC50: Not Active
[5]
  IC50: Not Active
Estrogen receptor beta
  IC50: Not Active

## CN/C(=N\CCSCc1nc[nH]c1C)NC#N [CIMETIDINE]
[1]; mdck
  IC50: Not Active
Substance-P receptor
  IC50: Not Active
[2]
  IC50: Not Active
[3]
  IC50: Not Active
  Ki: Not Active
[4]
  IC50: Not Active
[5]
  IC50: Not Active
Estrogen receptor beta
  IC50: Not Active

## CCC(=O)O[C@]1(C(=O)CCl)[C@@H](C)C[C@H]2[C@@H]3CCC4=CC(=O)C=C[C@]4(C)[C@@]3(F)[C@@H](O)C[C@@]21C [CLOBETASOL PROPIONATE]
[1]; mdck
  IC50: Not Active
Substance-P receptor
  IC50: Not Active
[2]
  IC50: Not Active
[3]
  IC50: Not Active
  Ki: Not Active
[4]
  IC50: Not Active
[5]
  IC50: Not Active
Estrogen receptor beta
  IC50: Not Active

## COC(=O)Nc1nc2ccc([S+]([O-])c3ccccc3)cc2[nH]1 (stereo not given) [OXFENDAZOLE]
[1]; mdck
  IC50: Not Active
Substance-P receptor
  IC50: Not Active
[2]
  IC50: Not Active
[3]
  IC50: Not Active
  Ki: Not Active
[4]
  IC50: Not Active
[5]
  IC50: Not Active
Glucocorticoid receptor
  IC50: Not Active

## CN(C)CC[C@@H](c1ccc(Cl)cc1)c1ccccn1 [DEXCHLORPHENIRAMINE]
[1]; read-out: IC50
  IC50: 4.97 µM
[1]
  Ki: 4.92 µM
Substance-P receptor
  IC50: Not Active
[2]
  IC50: Not Active
[3]
  IC50: Not Active
  Ki: Not Active
[4]
  IC50: Not Active
[5]
  IC50: Not Active
Glucocorticoid receptor
  IC50: Not Active
